Data: PMC10408569, “Recruitment of hexahydroquinoline as anticancer scaffold targeting inhibition of wild and mutants EGFR (EGFR^WT, EGFR^T790M, and EGFR^L858R)” (Journal of Enzyme Inhibition and Medicinal Chemistry, 2023)

Tests used:
Test in all cases: NCI-60 anticancer screening (SRB)
Assay type in all cases: cell-based
KM 12 = details: Homo sapiens, KM12; KM 12, colon cancer; one dose 10 μM; read-out: Growth Inhibition Percentage (GI %)
TK-10 = details: Homo sapiens; TK-10, renal cancer; one dose 10 μM; read-out: Growth Inhibition Percentage (GI %)
SR = details: Homo sapiens, leukemia, one dose 10 μM, read-out: Growth Inhibition Percentage (GI %)
SK-MEL-5 = details: Homo sapiens; SK-MEL-5, melanoma; one dose 10 μM; read-out: Growth Inhibition Percentage (GI %)
T-47D = details: Homo sapiens, T47D, breast cancer, one dose 10 μM, read-out: Growth Inhibition Percentage (GI %)
BT-549 = details: Homo sapiens; BT-549, breast cancer; one dose 10 μM; read-out: Growth Inhibition Percentage (GI %)
SK-MEL-28 = details: Homo sapiens; SK-MEL-28, melanoma; one dose 10 μM; read-out: Growth Inhibition Percentage (GI %)
U251 = details: Homo sapiens, U-251; U251, CNS cancer; one dose 10 μM; read-out: Growth Inhibition Percentage (GI %)
LOX IMVI = details: Homo sapiens, melanoma, one dose 10 μM, read-out: Growth Inhibition Percentage (GI %)
NCI-H322M = details: Homo sapiens, NSC lung cancer, one dose 10 μM, read-out: Growth Inhibition Percentage (GI %)
OVCAR-4 = details: Homo sapiens; OVCAR-4, ovarian cancer; one dose 10 μM; read-out: Growth Inhibition Percentage (GI %)
A549/ATCC = details: Homo sapiens; A549/ATCC, NSC lung cancer; one dose 10 μM; read-out: Growth Inhibition Percentage (GI %)
786-0 = details: Homo sapiens; 786-0, renal cancer; one dose 10 μM; read-out: Growth Inhibition Percentage (GI %)
SK-OV-3 = details: Homo sapiens; SK-OV-3, ovarian cancer; one dose 10 μM; read-out: Growth Inhibition Percentage (GI %)
SNB-75 = details: Homo sapiens; SNB-75, CNS cancer; one dose 10 μM; read-out: Growth Inhibition Percentage (GI %)
HOP-92 = details: Homo sapiens; HOP-92, NSC lung cancer; one dose 10 μM; read-out: Growth Inhibition Percentage (GI %)
HCC-2998 = details: Homo sapiens; HCC-2998, colon cancer; one dose 10 μM; read-out: Growth Inhibition Percentage (GI %)
A498 = details: Homo sapiens; A498, renal cancer; one dose 10 μM; read-out: Growth Inhibition Percentage (GI %)
CCRF-CEM = details: Homo sapiens, leukemia, one dose 10 μM, read-out: Growth Inhibition Percentage (GI %)
MDA-MB-231 = details: Homo sapiens; MDA-MB-231, breast cancer; one dose 10 μM; read-out: Growth Inhibition Percentage (GI %)
OVCAR-5 = details: Homo sapiens; OVCAR-5, ovarian cancer; one dose 10 μM; read-out: Growth Inhibition Percentage (GI %)
ACHN = details: Homo sapiens, renal cancer, one dose 10 μM, read-out: Growth Inhibition Percentage (GI %)
OVCAR-3 = details: Homo sapiens; OVCAR-3, ovarian cancer; one dose 10 μM; read-out: Growth Inhibition Percentage (GI %)
EKVX = details: Homo sapiens, NSC lung cancer, one dose 10 μM, read-out: Growth Inhibition Percentage (GI %)
NCI-H226 = details: Homo sapiens; NCI-H226, NSC lung cancer; one dose 10 μM; read-out: Growth Inhibition Percentage (GI %)
SNB-19 = details: Homo sapiens; SNB-19, CNS cancer; one dose 10 μM; read-out: Growth Inhibition Percentage (GI %)
CAKI-1 = details: Homo sapiens; CAKI-1, renal cancer; one dose 10 μM; read-out: Growth Inhibition Percentage (GI %)
SW-620 = details: Homo sapiens; SW-620, colon cancer; one dose 10 μM; read-out: Growth Inhibition Percentage (GI %)
MDA-MB-468 = details: Homo sapiens; MDA-MB-468, breast cancer; one dose 10 μM; read-out: Growth Inhibition Percentage (GI %)
RPMI-8226 = details: Homo sapiens; RPMI-8226, leukemia; one dose 10 μM; read-out: Growth Inhibition Percentage (GI %)
SK-MEL-2 = details: Homo sapiens; SK-MEL-2, melanoma; one dose 10 μM; read-out: Growth Inhibition Percentage (GI %)
SN 12C = details: Homo sapiens, SN12C; SN 12C, renal cancer; one dose 10 μM; read-out: Growth Inhibition Percentage (GI %)
MALME-3M = details: Homo sapiens, melanoma, one dose 10 μM, read-out: Growth Inhibition Percentage (GI %)

Structure (SMILES) | inhibition at 10 µM (KM 12) [%] | inhibition at 10 µM (TK-10) [%] | inhibition at 10 µM (SR) [%] | inhibition at 10 µM (SK-MEL-5) [%] | inhibition at 10 µM (T-47D) [%] | inhibition at 10 µM (BT-549) [%] | inhibition at 10 µM (SK-MEL-28) [%] | inhibition at 10 µM (U251) [%] | inhibition at 10 µM (LOX IMVI) [%] | inhibition at 10 µM (NCI-H322M) [%] | inhibition at 10 µM (OVCAR-4) [%] | inhibition at 10 µM (A549/ATCC) [%] | inhibition at 10 µM (786-0) [%] | inhibition at 10 µM (SK-OV-3) [%] | inhibition at 10 µM (SNB-75) [%] | inhibition at 10 µM (HOP-92) [%] | inhibition at 10 µM (HCC-2998) [%] | inhibition at 10 µM (A498) [%] | inhibition at 10 µM (CCRF-CEM) [%] | inhibition at 10 µM (MDA-MB-231) [%] | other results
CCOC(=O)C1=C(N)N(c2ccccc2)C2=C(C(=O)CC(C)(C)C2)C1c1ccccn1 (racemic) [12a, (±)-Ethyl 2-amino-7,7-dimethyl-5-oxo-1-phenyl-4-(pyridin-2-yl)-1,4,5,6,7,8-hexahydroquinoline-3-carboxylate] | < 10 | < 10 | 16 | < 10 | < 10 | < 10 | < 10 | < 10 | < 10 | < 10 | < 10 | < 10 | < 10 | < 10 | 19 | < 10 | < 10 | < 10 | < 10 | < 10 | inhibition at 10 µM (OVCAR-5): < 10%; inhibition at 10 µM (ACHN): < 10%; inhibition at 10 µM (OVCAR-3): < 10%; inhibition at 10 µM (EKVX): < 10%; inhibition at 10 µM (NCI-H226): < 10%; inhibition at 10 µM (SNB-19): < 10%; inhibition at 10 µM (CAKI-1): < 10%; inhibition at 10 µM (SW-620): < 10%; inhibition at 10 µM (MDA-MB-468): < 10%; inhibition at 10 µM (RPMI-8226): < 10%; inhibition at 10 µM (SK-MEL-2): < 10%; inhibition at 10 µM (SN 12C): < 10%; inhibition at 10 µM (MALME-3M): < 10%
CCOC(=O)C1=C(N)N(c2ccc(C)cc2)C2=C(C(=O)CC(C)(C)C2)C1c1ccccn1 (racemic) [12b, (±)-Ethyl 2-amino-7,7-dimethyl-1–(4-methylphenyl)-5-oxo-1-phenyl-4-(pyrdin-2-yl)-1,4,5,6,7,8-hexahydroquinoline-3-carboxylate] | < 10 | < 10 | < 10 | 13 | < 10 | 30 | < 10 | < 10 | < 10 | < 10 | < 10 | < 10 | < 10 | < 10 | 19 | < 10 | < 10 | < 10 | < 10 | 13 | inhibition at 10 µM (OVCAR-5): < 10%; inhibition at 10 µM (ACHN): < 10%; inhibition at 10 µM (OVCAR-3): < 10%; inhibition at 10 µM (EKVX): 19%; inhibition at 10 µM (NCI-H226): < 10%; inhibition at 10 µM (SNB-19): < 10%; inhibition at 10 µM (CAKI-1): 16%; inhibition at 10 µM (SW-620): < 10%; inhibition at 10 µM (MDA-MB-468): 82%; inhibition at 10 µM (RPMI-8226): < 10%; inhibition at 10 µM (SK-MEL-2): < 10%; inhibition at 10 µM (SN 12C): < 10%; inhibition at 10 µM (MALME-3M): < 10%
CCOC(=O)C1=C(N)N(c2ccc(Cl)cc2)C2=C(C(=O)CC(C)(C)C2)C1c1ccc(Cl)cc1 (racemic) [8e, (±)-Ethyl 2-amino-1,4-bis (4-chlorophenyl)-7,7-dimethyl-5-oxo-1,4,5,6,7,8-hexahydroquinoline-3-carboxylate] | 38 | 11 | 52 | 46 | 42 | 21 | 26 | 31 | 11 | < 10 | 54 | 62 | 23 | < 10 | 27 | < 10 | 11 | < 10 | 61 | 24 | inhibition at 10 µM (OVCAR-5): < 10%; inhibition at 10 µM (ACHN): 32%; inhibition at 10 µM (OVCAR-3): 16%; inhibition at 10 µM (EKVX): 33%; inhibition at 10 µM (NCI-H226): < 10%; inhibition at 10 µM (SNB-19): 31%; inhibition at 10 µM (CAKI-1): 19%; inhibition at 10 µM (SW-620): 33%; inhibition at 10 µM (MDA-MB-468): 33%; inhibition at 10 µM (RPMI-8226): 90%; inhibition at 10 µM (SK-MEL-2): < 10%; inhibition at 10 µM (SN 12C): < 10%; inhibition at 10 µM (MALME-3M): 39%
CCOC(=O)C1=C(N)N(c2ccccc2)C2=C(C(=O)CC(C)(C)C2)C1c1ccc(Cl)cc1 (racemic) [8c, (±)-Ethyl 2-amino-4–(4-chlorophenyl)-7,7-dimethyl-5-oxo-1-phenyl-1,4,5,6,7,8-hexahydroquinoline-3-carboxylate] | 82 | 20 | 87 | 72 | 70 | 57 | 56 | 58 | 59 | 35 | 71 | 66 | 33 | 56 | 27 | 30 | 57 | 33 | 85 | 47 | inhibition at 10 µM (OVCAR-5): 42%; inhibition at 10 µM (ACHN): 78%; inhibition at 10 µM (OVCAR-3): 48%; inhibition at 10 µM (EKVX): 72%; inhibition at 10 µM (NCI-H226): 30%; inhibition at 10 µM (SNB-19): 85%; inhibition at 10 µM (CAKI-1): 50%; inhibition at 10 µM (SW-620): 72%; inhibition at 10 µM (MDA-MB-468): 67%; inhibition at 10 µM (RPMI-8226): 92%; inhibition at 10 µM (SK-MEL-2): 70%; inhibition at 10 µM (SN 12C): 46%; inhibition at 10 µM (MALME-3M): 84%
